Assay: xn = mol fraction of the nth substance listed
Conditions: 100 kPa

CC(=O)[O-].CC[n+]1ccn(C)c1 + O
viscosity [mPa·s]
Conditions | 293.15 K | 303.15 K | 313.15 K | 323.15 K | 333.15 K | 343.15 K | 353.15 K
x2 = 0 | 203 | 104.8 | 61.1 | 38.9 | 26.56 | 19.01 | 14.24
x2 = 0.2088 | – | 77.9 | – | – | 20.8 | – | –
x2 = 0.4 | 88.6 | – | – | 23.04 | 16.47 | – | 9.27
x2 = 0.6014 | 51.8 | 32.6 | 21.88 | 15.4 | 11.09 | 8.39 | –
x2 = 0.8023 | 20.45 | 13.51 | 9.41 | 6.6 | 4.95 | – | 3.021
